Experimental data as given in patent publication US10669235B2, “Indole derivatives and their use as protein kinase inhibitors” (RESPIVERT LIMITED, priority 2016, dated 2020).
Structures can show the parent of a compound that is named as a salt. Where two headings read alike, the source gives them in different places.

Tests used:
[1] = target: T1, PDGFRβ (Homo sapiens (Human), UniProt P09619); assay: PDGFRβ enzyme inhibition (ADP-Glo assay); type: biochemical; conditions: mean, n = 2 (nintedanib n = 34)
T1 sequence (P09619 33-1106): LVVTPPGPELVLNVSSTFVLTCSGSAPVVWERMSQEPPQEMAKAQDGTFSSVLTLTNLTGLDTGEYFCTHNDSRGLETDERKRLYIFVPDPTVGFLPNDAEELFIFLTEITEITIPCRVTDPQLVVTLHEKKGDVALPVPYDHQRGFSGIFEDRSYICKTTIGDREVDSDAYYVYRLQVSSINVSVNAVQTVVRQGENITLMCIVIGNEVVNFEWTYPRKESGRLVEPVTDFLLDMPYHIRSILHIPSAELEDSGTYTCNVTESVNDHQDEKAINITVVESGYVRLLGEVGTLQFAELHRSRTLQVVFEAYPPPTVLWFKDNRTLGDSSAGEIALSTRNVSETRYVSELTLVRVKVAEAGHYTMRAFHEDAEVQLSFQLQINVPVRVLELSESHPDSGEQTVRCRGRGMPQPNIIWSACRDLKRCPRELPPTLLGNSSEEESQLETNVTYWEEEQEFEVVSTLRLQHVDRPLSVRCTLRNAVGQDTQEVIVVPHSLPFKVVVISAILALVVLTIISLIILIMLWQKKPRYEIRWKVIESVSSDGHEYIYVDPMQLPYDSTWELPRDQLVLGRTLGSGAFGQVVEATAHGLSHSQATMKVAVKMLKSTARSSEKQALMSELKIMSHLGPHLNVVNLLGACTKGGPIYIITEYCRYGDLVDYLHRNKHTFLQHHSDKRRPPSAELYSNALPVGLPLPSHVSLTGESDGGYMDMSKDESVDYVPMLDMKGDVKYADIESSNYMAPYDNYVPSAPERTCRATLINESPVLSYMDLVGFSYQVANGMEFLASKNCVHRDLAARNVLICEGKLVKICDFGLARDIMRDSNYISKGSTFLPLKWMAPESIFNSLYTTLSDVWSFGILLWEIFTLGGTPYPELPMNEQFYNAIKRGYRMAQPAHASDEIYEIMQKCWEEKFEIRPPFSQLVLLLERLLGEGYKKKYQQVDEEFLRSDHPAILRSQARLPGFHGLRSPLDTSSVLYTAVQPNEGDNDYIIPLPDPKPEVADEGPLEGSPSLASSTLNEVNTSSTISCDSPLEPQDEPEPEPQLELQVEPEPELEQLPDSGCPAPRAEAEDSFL

[2] = target: T1, PDGFRβ; assay: PDGF-BB induced phosphorylation of PDGFRβ in fibroblasts (MRC5, HTRF); type: cell-based
[3] = PAMPA permeability assay; type: in vitro ADME; conditions: for Papp at 5 h, 10 µM: pH 7, 10 μM
[4] = Pharmacokinetic measurements in rats (i.v., i.t., oral); type: in vivo; conditions: rat; for concentration at 0.1 h / concentration at 1.5 h / concentration at 6 h / concentration at 24 h: lung; for concentration at 0.1 h: read-out: lung concentration (nM) at time 0.1 h; for concentration at 1.5 h: read-out: lung concentration (nM) at time 1.5 h; for concentration at 6 h: read-out: lung concentration (nM) at time 6 h; for concentration at 24 h: read-out: lung concentration (nM) at time 24 h; for Kp at 0.1 h / Kp at 1.5 h / Kp at 6 h / Kp at 24 h: lung/plasma
[5] = system: MRC5 cells; assay: Cell viability assay in MRC5 cells (MTT)
[6] = MRC5 cells, PDGFBB stimulation, read-out: PDGFBB-induced PDGFRβ phosphorylation in MRC5 cells (IC50)
[7] = male, CD, other: intra-tracheal
[8] = male, CD, iv, read-out: lung/plasma ratio at time 0.1 h
[9] = male, CD, iv, read-out: lung/plasma ratio at time 1.5 h
[10] = male, CD, iv, read-out: lung/plasma ratio at time 6 h
[11] = male, CD, iv, read-out: lung/plasma ratio at time 24 h
[12] = male, CD, other: intra-tracheal, read-out: lung/plasma conc ratio at time 0.1 h
[13] = i.t. dose 0.1 (nintedanib 0.42)
[14] = i.t. dose 0.1 (nintedanib 0.42), 1.5 h
[15] = i.t. dose 0.1 (nintedanib 0.42), 6 h
[16] = i.t. dose 0.1 (nintedanib 0.42), 24 h
[17] = i.v. dose 0.1 (nintedanib 0.42)
[18] = i.v. dose 0.1 (nintedanib 0.42), 1.5 h
[19] = i.v. dose 0.1 (nintedanib 0.42), 6 h
[20] = i.v. dose 0.1 (nintedanib 0.42), 24 h

## COC(=O)c1cc2c(cc1C)/C(=C(/Nc1ccc(C(=O)NCC3CCN(C)CC3)cc1)c1ccccc1)C(=O)N2 [Example 3, (Z)-Methyl 5-methyl-3-(((4-(((1-methylpiperidin-4-yl)methyl)carbamoyl)phenyl)amino)(phenyl)methylene)-2-oxoindoline-6-carboxylate, formate]
[1]
  Ki: 6.86 nM
[2]; [6]
  IC50: 12.7 nM
[3]; pH 7, PAMPA
  recovery at 5 hr, 10 μM: 92.4%
  Papp at 5 h, 10 µM: 0.00775 ×10⁻⁶ cm/s
[4]; male, CD, iv
  concentration at 0.1 h: 761 nM
  concentration at 1.5 h: 700 nM
  concentration at 6 h: 321 nM
  concentration at 24 h: 135 nM
[4]; [7]
  concentration at 0.1 h: 2600 nM
  concentration at 1.5 h: 4990 nM
  concentration at 6 h: 4680 nM
  concentration at 24 h: 1860 nM
[4]; [8]
  Kp at 0.1 h: 38
[4]; [9]
  Kp at 1.5 h: 154
[4]; [10]
  Kp at 6 h: 120
[4]; [11]
  Kp at 24 h: > 72
[4]; [12]
  Kp at 0.1 h: 100
[4]; male, CD, other: intra-tracheal, read-out: lung/plasma conc ratio at time 1.5 h
  Kp at 1.5 h: 1910
[4]; male, CD, other: intra-tracheal, read-out: lung/plasma conc ratio at time 6 h
  Kp at 6 h: 2150
[4]; male, CD, other: intra-tracheal, read-out: lung/plasma conc ratio at time 24 h
  Kp at 24 h: > 1000
[4]
  Lung conc i.t./i.v. Ratio at time 0.1 h: 3
[4]; 1.5 h
  Lung conc i.t./i.v. Ratio at time 1.5 h: 7
[4]; 6 h
  Lung conc i.t./i.v. Ratio at time 6 h: 15
[4]; 24 h
  Lung conc i.t./i.v. Ratio at time 24 h: 14
[4]; [13]
  BAL % administered dose at time 0.1 h: 14%
[4]; [14]
  BAL % administered dose at time 1.5 h: 1.2%
[4]; [15]
  BAL % administered dose at time 6 h: 0.7%
[4]; [16]
  BAL % administered dose at time 24 h: 0.3%
[4]; [17]
  BAL % administered dose at time 0.1 h: 0.1%
[4]; [18]
  BAL % administered dose at time 1.5 h: 0.1%
[4]; [19]
  BAL % administered dose at time 6 h: 0.03%
[4]; [20]
  BAL % administered dose at time 24 h: 0.02%
[5]
  Cell viability at 100 nM (%): 88%
  Cell viability at 300 nM (%): 86.1%
  Cell viability at 1000 nM (%): 79.5%

## COC(=O)c1cc2c(cc1C)/C(=C(/Nc1ccc(C(=O)NCCN3CCNC(=O)C3)cc1)c1ccccc1)C(=O)N2 [Example 9, (Z)-Methyl 5-methyl-2-oxo-3-(((4-((2-(3-oxopiperazin-1-yl)ethyl)carbamoyl)phenyl)amino) (phenyl)methylene)indoline-6-carboxylate]
[1]
  Ki: 7.89 nM
[2]; [6]
  IC50: 14.2 nM
[3]; pH 7, PAMPA
  recovery at 5 hr, 10 μM: 72.7%
  Papp at 5 h, 10 µM: 0.0146 ×10⁻⁶ cm/s
[4]; male, CD, iv
  concentration at 0.1 h: 494 nM
  concentration at 1.5 h: 174 nM
  concentration at 6 h: 235 nM
  concentration at 24 h: 502 nM
[4]; [7]
  concentration at 0.1 h: 5700 nM
  concentration at 1.5 h: 8810 nM
  concentration at 6 h: 10500 nM
  concentration at 24 h: 10500 nM
[4]; [8]
  Kp at 0.1 h: 17
[4]; [9]
  Kp at 1.5 h: 55
[4]; [10]
  Kp at 6 h: > 326
[4]; [11]
  Kp at 24 h: > 697
[4]; [12]
  Kp at 0.1 h: > 7890
[4]; male, CD, plasma, iv
  MRT: 1.1 h
  clearance: 90 mL/min/kg
  half-life: 1.1 h
[4]; male, CD, plasma, iv, read-out: Vss
  Vd: 7 L/kg
[4]
  Lung conc i.t./i.v. Ratio at time 0.1 h: 12
[4]; 1.5 h
  Lung conc i.t./i.v. Ratio at time 1.5 h: 51
[4]; 6 h
  Lung conc i.t./i.v. Ratio at time 6 h: 45
[4]; 24 h
  Lung conc i.t./i.v. Ratio at time 24 h: 21
[4]; [13]
  i.t. BAV (%): <40%
  BAL % administered dose at time 0.1 h: 13.7%
[4]; [14]
  BAL % administered dose at time 1.5 h: 5.2%
  lung/plasma conc ratio at time 1.5 h: >12197
[4]; [15]
  BAL % administered dose at time 6 h: 2.3%
  lung/plasma conc ratio at time 6 h: >14485
[4]; [16]
  BAL % administered dose at time 24 h: 0.5%
  lung/plasma conc ratio at time 24 h: >14483
[4]; [17]
  BAL % administered dose at time 0.1 h: BQL
[4]; [18]
  BAL % administered dose at time 1.5 h: BQL
[4]; [19]
  BAL % administered dose at time 6 h: BQL
[4]; [20]
  BAL % administered dose at time 24 h: BQL
[4]; oral dose 3 mg/kg
  Oral BAV (%): <2%
[5]
  Cell viability at 100 nM (%): 102%
  Cell viability at 300 nM (%): 103.6%
  Cell viability at 1000 nM (%): 97.5%

## COC(=O)c1cc2c(cc1C)/C(=C(/Nc1ccc(C(=O)NC3CCN(C)CC3)cc1)c1ccccc1)C(=O)N2 [Example 18, (Z)-Methyl-5-methyl-3-(((4-((1-methylpiperidin-4-yl)carbamoyl)phenyl)amino)(phenyl)methylene)-2-oxoindoline-6-carboxylate, formate]
[1]
  Ki: 7.99 nM
[2]
  IC50: 16.8 nM
[3]; pH 7
  recovery at 5 hr, 10 μM: 84.5%
[3]
  Papp at 5 h, 10 µM: 0.00383 ×10⁻⁶ cm/s
[4]; male, CD, iv
  concentration at 0.1 h: 638 nM
  concentration at 1.5 h: 306 nM
  concentration at 6 h: 201 nM
[4]; [7]
  concentration at 0.1 h: 6530 nM
  concentration at 1.5 h: 5990 nM
  concentration at 6 h: 2350 nM
  concentration at 24 h: 4520 nM
[4]; male, CD, plasma, iv
  half-life: 5.1 h
[4]; [13]
  i.t. BAV (%): 39%
  BAL % administered dose at time 0.1 h: 6.7%
[4]; [14]
  BAL % administered dose at time 1.5 h: 2.2%
[4]; [15]
  BAL % administered dose at time 6 h: 0.4%
[4]; [16]
  BAL % administered dose at time 24 h: 0.3%
[4]; [17]
  BAL % administered dose at time 0.1 h: 0.13%
[4]; [18]
  BAL % administered dose at time 1.5 h: 0%
[4]; [19]
  BAL % administered dose at time 6 h: BQL
[4]; [20]
  BAL % administered dose at time 24 h: BQL
[5]
  Cell viability at 100 nM (%): 98.2%
  Cell viability at 300 nM (%): 97.3%
  Cell viability at 1000 nM (%): 91.8%
